Test results reported in paper PMC9687241 (Biomolecules, 2022).

Legend:
SARS-CoV-2 M^pro [1] = biological target: T1, SARS-CoV-2 M^pro (Severe acute respiratory syndrome coronavirus 2, UniProt P0DTD1); assay type: biochemical; conditions: 0.2 µM M^pro, 2 h incubation at r.t., 4 µM substrate, Hill equation fit; read-out: Inhibition constants, Ki
SARS-CoV-2 M^pro [2] = biological target: T1, SARS-CoV-2 M^pro; test: ESI MS of metallodrug-protein adduct formation; assay type: binding; conditions: protein-to-metal ratio 1:3 (1:1 for Au(PEt3)Br), 37 °C, 4 h incubation (up to 24 h)

Row | Structure (SMILES) | Ki (SARS-CoV-2 M^pro [1]) | protein metalation / adduct formation (ESI MS) (SARS-CoV-2 M^pro [2])
1 | CCP(CC)CC.[Au+].[Cl-] [Au(PEt3)Cl] | 660 ± 26 nM | 
2 | CC[P](CC)(CC)[Au][I] [Au(PEt3)I] | 2120 ± 96 nM | 
3 | CC[P](CC)(CC)[Au][Br] [Au(PEt3)Br] | 440 ± 22 nM | 
4 | CCCC[n+]1ccn(C)[c]1[Au-][Cl] [Au(NHC)Cl] | 870 ± 40 nM | formation of a mono adduct
